The values below come from ChEMBL document CHEMBL4152371, “A truncated RHAMM protein for discovering novel therapeutic peptides” (Bioorg Med Chem, 2018).

For orientation: Kd means a measure of binding affinity in units of concentration.

For experiment [1], the target named is T1, Hyaluronan mediated motility receptor (Homo sapiens) (UniProt O75330).
T1 sequence (whole entry): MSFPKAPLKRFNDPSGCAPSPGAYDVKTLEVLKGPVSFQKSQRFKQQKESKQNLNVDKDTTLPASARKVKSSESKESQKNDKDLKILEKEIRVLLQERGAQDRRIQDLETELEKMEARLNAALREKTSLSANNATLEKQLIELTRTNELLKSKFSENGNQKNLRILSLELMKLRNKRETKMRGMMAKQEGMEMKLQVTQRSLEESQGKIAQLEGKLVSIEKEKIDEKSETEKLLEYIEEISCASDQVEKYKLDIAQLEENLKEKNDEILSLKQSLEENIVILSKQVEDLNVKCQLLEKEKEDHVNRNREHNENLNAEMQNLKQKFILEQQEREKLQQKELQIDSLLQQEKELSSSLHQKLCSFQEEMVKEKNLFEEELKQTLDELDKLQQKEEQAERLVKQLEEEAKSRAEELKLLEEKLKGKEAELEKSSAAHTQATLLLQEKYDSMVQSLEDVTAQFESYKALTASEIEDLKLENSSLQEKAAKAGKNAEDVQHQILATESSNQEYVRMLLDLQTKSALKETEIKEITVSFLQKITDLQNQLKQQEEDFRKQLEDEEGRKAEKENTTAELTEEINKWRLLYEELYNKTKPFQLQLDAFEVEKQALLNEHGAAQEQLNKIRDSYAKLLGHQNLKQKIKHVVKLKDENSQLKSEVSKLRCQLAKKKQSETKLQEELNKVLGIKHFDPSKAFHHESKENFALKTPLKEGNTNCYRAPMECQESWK
The experiment in a line: Inhibition of C-terminal His-tagged 7 kDa RHAMM (unknown origin) binding to HA assessed as association constant at 10 nM after 240 secs by SPR method. (In general: SPR reads the build-up and loss of mass on a sensor chip optically.)

Experiment [2] deals with T1, Hyaluronan mediated motility receptor (Homo sapiens). The experiment in a line: Inhibition of C-terminal His-tagged 7 kDa RHAMM (unknown origin) binding to HA assessed as association constant at 500 nM after 240 secs by SPR method.
The target is the same in experiment [3]. Kind of experiment: Inhibition of C-terminal His-tagged 7 kDa RHAMM (unknown origin) binding to HA assessed as association constant at 1 nM after 240 secs by SPR method.
For experiment [4] the target is unchanged. Kind of experiment: Inhibition of C-terminal His-tagged 7 kDa RHAMM (unknown origin) binding to HA assessed as association constant at 750 nM after 240 secs by SPR method.
Experiment [5] shares this target. The experiment in a line: Inhibition of C-terminal His-tagged 7 kDa RHAMM (unknown origin) binding to HA assessed as association constant at 100 nM after 240 secs by SPR method.
Experiment [6] has the same target. Kind of experiment: Inhibition of C-terminal His-tagged 7 kDa RHAMM (unknown origin) binding to HA assessed as association constant at 1000 nM after 240 secs by SPR method.
In experiment [7] the target is T2, Hyaluronan mediated motility receptor (Homo sapiens, UniProt O75330).
T2 sequence (O75330 whole entry): T1 sequence (whole entry)
Kind of experiment: Inhibition of recombinant RHAMM (unknown origin) binding to HA after 240 secs by SPR method.

For experiment [8], the target named is T2, Hyaluronan mediated motility receptor. The experiment in a line: Inhibition of C-terminal His-tagged 7 kDa RHAMM (unknown origin) binding to HA after 240 secs by SPR method.
The target of experiment [9] is T1, Hyaluronan mediated motility receptor (Homo sapiens). Kind of experiment: Inhibition of C-terminal His-tagged 7 kDa RHAMM (unknown origin) binding to HA at 1 to 1000 nM after 240 secs by SPR method.

Activity calls are given as the source filed them. No cut-off for these calls is given here.

In the case of H-EAFEDEEEEIDG-NH2, the K came to 3.1 ×10⁴ /M.s in experiment [1]; 0.9 ×10⁴ /M.s in [2]; 3.7 ×10⁴ /M.s in [3]; 2.9 ×10⁴ /M.s in experiment [4]; 3.1 ×10⁴ /M.s in experiment [5]; 3.4 ×10⁴ /M.s in experiment [6]. Further, the dissociation constant (Kd) in [7] amounted to 211 nM; in experiment [8], 289 nM.

As to H-EEDFGEEAEEEA-NH2, the K came out at 2.3 ×10⁴ /M.s in experiment [1]; 3 ×10⁴ /M.s in experiment [2]; 5.7 ×10⁴ /M.s in experiment [3]; 3.3 ×10⁴ /M.s in experiment [4]; 1.4 ×10⁴ /M.s in experiment [5]; 4 ×10⁴ /M.s in [6]. In addition, the figures for the dissociation constant Kd in [7] and in [8] were 32.6 nM and 202 nM, respectively.

Regarding H-FTEAESNMNDLV-NH2, the K is 0.5 ×10⁴ /M.s in [1]; 4.9 ×10⁴ /M.s in experiment [2]; 0.8 ×10⁴ /M.s in [3]; 3.5 ×10⁴ /M.s in experiment [4]; 0.1 ×10⁴ /M.s in [5]; 2 ×10⁴ /M.s in experiment [6]. The values for the dissociation constant Kd in experiment [7] and in experiment [8] were 30.2 nM and 20.9 nM, respectively.

Take H-GEFEEEAEEEVA-NH2: the K in [1] is 0.22 ×10⁴ /M.s; in [2] it was 1 ×10⁴ /M.s; in [3], 0.48 ×10⁴ /M.s; in experiment [4] it was 1.2 ×10⁴ /M.s; in experiment [5], 1.5 ×10⁴ /M.s; in experiment [6], 1.6 ×10⁴ /M.s. The Kd was determined as 130 nM in [7] and 265 nM in experiment [8].

In the case of H-GEFSEAREDMAA-NH2, in experiment [9], the inhibition entry is “inactive”.

As to H-SVEAEAEEGEEY-NH2, the K in experiment [1] came to 0.16 ×10⁴ /M.s; in experiment [2], 2.3 ×10⁴ /M.s; in [3] it was 0.02 ×10⁴ /M.s; in [4], 1.9 ×10⁴ /M.s; in experiment [5], 1.4 ×10⁴ /M.s; in [6], 1.3 ×10⁴ /M.s. The Kd in [7] amounted to 331 nM; in [8] it was 31.9 nM.

For H-VEGEGEEEGEEY-NH2, the K came out at 1.6 ×10⁴ /M.s in experiment [1]; 5.8 ×10⁴ /M.s in [2]; 0.7 ×10⁴ /M.s in experiment [3]; 5 ×10⁴ /M.s in experiment [4]; 0.2 ×10⁴ /M.s in experiment [5]; 4.1 ×10⁴ /M.s in experiment [6]. In addition, the Kd in experiment [7] worked out at 24.2 nM; in experiment [8] it was 43.3 nM.
